Experiment [1] deals with T1, mppGalNAcT-2 (Mus musculus, UniProt Q6PB93).
T1 construct: plasmids encoding truncated secreted ppGalNAcTs-1 to −5, -7, -10 and -11; made in house; host or cells: COS-7
In words: ELLA for ppGalNAcTs, mppGalNAcT-2. It counts as biochemical, murine. Particulars: 20 μM UDP-GalNAc, 50 μM EA2 peptide 4. As to the method: COS-7 cells were transiently transfected with plasmids encoding truncated secreted ppGalNAcTs-1 to −5, -7, -10 and -11 as previously described. Hagen et al. (1997) J. Biol. Chem. 272:13843-13848. The crude conditioned medium was used as the enzyme source.
Standard reaction conditions for ppGalNAcT assays were as follows. The reaction mixture contained the following components in a final volume of 25 μL: 10 mM MnCl2, 40 mM sodium cacodylate, 40 mM β-mercaptoethanol, 0.1% Triton X-100, pH 6.5, 5 μL of conditioned media, and various concentrations of EA2 peptide 4, UDP-GalNAc and inhibitor. All uridine-based compounds were dissolved in dimethyl sulfoxide (DMSO). […] Reaction rates were linear over the period monitored (20-30 min).
96-Well NeutrAvidin-coated plates were prewashed 3 times with 200 μL of wash buffer (25 mM Tris, 150 mM NaCl, 0.1% bovine serum albumin (BSA) (w/v), and 0.05% Tween (v/v), pH 7.2). […] After 3 washes with 200 μL of PBS, bound HPA-HRP was quantified by the addition of 100 μL of TMB peroxide solution. […] HRP activity was terminated by the addition of 50 μL of 2 N H2SO4 and the resulting solution was analyzed at 450 nm using a UV/Vis microtiter plate reader. The amount of product generated by the ppGalNAcT was extrapolated from absorbance values using an equation fit to the standard curve derived from Origin 6.1 software.

Experiment [2] deals with Jurkat cells. In words: Con A staining of N-linked glycans on Jurkat cells, flow cytometry. It counts as cell-based, human. Particulars: 2 d treatment. How it is done:
Jurkat cells were seeded at 250,000 cells/well (determined by Coulter cell counter) in 12-well polystyrene tissue culture plates in 1.0 mL of media and treated with various concentrations of 1-68A or 2-68A from 50 mM dimethyl sulfoxide (DMSO) stock solutions or doxorubicin or campothecin from 1 mM DMSO stock solutions. After 2 d, cells were harvested, washed twice with PBS buffer (PBS, pH 7.4, 0.1% FCS, 0.1% NaN3 w/v) and stained with FITC-HPA (1 μg/mL) or FITC-Con A (5 μg/mL with 1 mM CaCl2) in PBS, pH 7.4 in the dark for 1 h at 4° C. Cells were washed twice with PBS buffer, resuspended in 300 μL of PBS buffer and analyzed by flow cytometry (FacsCaliber, BD Instruments). Annexin-V staining was performed according to the manufacturer's protocols (Invitrogen).
To directly monitor ppGalNAcT activities in cells, Jurkat cells (human T-cell lymphoma), which are known to produce only the Tn-antigen (FIG. 1) as their O-linked glycans, were chosen. Piller et al. (1990) J. Biol. Chem. 265:9264-9271. Changes in Tn-antigen expression on the surface of Jurkat cells were monitored by HPA binding followed by flow cytometry analysis. Con A staining of N-linked glycans was used as a control for non-specific inhibition of protein glycosylation. Baenziger and Fiete (1979) J. Biol. Chem. 254:2400-2407.

The values that follow come from US20060063736A1, “Compositions and methods for inhibiting mucin-type O-linked glycosylation” (priority 2004, published 2006).

T1 sequence (Q6PB93 25-570 limits assumed): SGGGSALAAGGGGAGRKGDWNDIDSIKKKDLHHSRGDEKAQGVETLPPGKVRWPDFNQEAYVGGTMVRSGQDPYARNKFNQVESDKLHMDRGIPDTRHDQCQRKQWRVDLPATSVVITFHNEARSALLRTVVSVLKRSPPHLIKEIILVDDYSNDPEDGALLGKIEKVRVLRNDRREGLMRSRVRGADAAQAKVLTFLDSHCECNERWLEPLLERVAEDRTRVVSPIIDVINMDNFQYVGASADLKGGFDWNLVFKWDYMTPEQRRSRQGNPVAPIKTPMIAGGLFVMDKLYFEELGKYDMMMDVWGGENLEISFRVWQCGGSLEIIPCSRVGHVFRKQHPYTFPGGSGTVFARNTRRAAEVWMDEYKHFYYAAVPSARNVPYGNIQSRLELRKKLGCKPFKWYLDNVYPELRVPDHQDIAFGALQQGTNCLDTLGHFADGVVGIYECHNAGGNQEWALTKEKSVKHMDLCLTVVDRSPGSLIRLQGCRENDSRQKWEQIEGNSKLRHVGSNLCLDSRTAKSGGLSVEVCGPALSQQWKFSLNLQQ

In the case of `O=c1ccn([C@@H]2O[C@H](CON=Cc3ccc(O)c(O)c3O)[C@@H](O)[C@H]2O)c(=O)[nH]1` [1-68A], in experiment [1], the concentration for half-maximal inhibition (IC50) (commonly the concentration that gives 50% inhibition) worked out at 15 ± 1 µM. Moreover, the “effect on Con A staining” value in experiment [2] is “no significant effect”.

In turn, `O=C(CON=Cc1ccc(O)c(O)c1O)NC[C@H]1O[C@@H](n2ccc(=O)[nH]c2=O)[C@H](O)[C@@H]1O` [2-68A] gave a half-inhibitory concentration (IC50) in experiment [1] of 18 ± 2 µM. In addition, the “effect on Con A staining” value in experiment [2] is listed as “no significant effect”.
